Laboratory results as given in patent US5679321A, “Sialic acid/fucose based medicaments” (Glycomed Incorporated, priority 1995, dated 1997).

Columns and labels:
E-selectin IgG chimera = assay: ELISA: blocking of E-selectin IgG chimera binding to 2,3sLex glycolipid; set-up: species or system human; settings: FIG. 4; several concentrations
From the text: (§1) An ELISA assay was employed that uses recombinant fusion proteins composed of extracellular portions of the human selectins joined to human immunoglobulin heavy chain CH3, CH2, and hinge regions. See, for example, Walz et al., Science (1990) 250:1132; Aruffo et al., Cell (1991) 67:35; Aruffo et al., Proc. Natl. Acad. Sci. USA (1992) 89:2292. The assay is well known in the art, and generally consists of the following three steps:
(§2) I. 2,3sLex glycolipid (25 picomole/well) was transferred into microtiter wells as solutions and then evaporated off. Excess, which remained unattached, was washed off with water. The wells were then blocked with 5% BSA at room temperature for an hour and then washed with PBS containing 1 mM calcium.
II. […]
(§3) The positive control is the signal produced by the soluble receptor when it is allowed to react with 2,3sLex glycolipid in the microtiter wells in the absence of any inhibitor. […] The signal produced by the receptor that had been previously treated with an inhibitor (recorded as O.D.), was divided by the signal produced by the positive control and multiplied by 100 to calculate the % receptor bound to the well, or as expressed in the figures, the per cent of control binding. […]

L-selectin IgG chimera = molecular target: T1, L-selectin IgG chimera (Homo sapiens, UniProt P14151); assay: ELISA: blocking of L-selectin IgG chimera binding to 2,3sLex glycolipid
T1 sequence (P14151 39-332 limits assumed): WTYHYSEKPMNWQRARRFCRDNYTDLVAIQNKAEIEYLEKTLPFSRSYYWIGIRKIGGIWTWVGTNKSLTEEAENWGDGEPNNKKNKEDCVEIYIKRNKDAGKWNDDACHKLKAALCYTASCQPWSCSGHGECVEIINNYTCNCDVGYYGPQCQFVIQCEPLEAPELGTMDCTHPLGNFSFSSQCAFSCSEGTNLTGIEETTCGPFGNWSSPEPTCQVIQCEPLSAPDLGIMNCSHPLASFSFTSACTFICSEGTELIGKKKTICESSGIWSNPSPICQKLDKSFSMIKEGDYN
From the text: as §1, §2
II. […]
as §3

[1] = test system: neutrophil migration to the peritoneal cavity; assay: murine thioglycollate induced peritonitis model; type: in vivo, female Swiss Webster mice; settings: FIG. 7; for inhibition of neutrophil migration into the peritoneum: compound in PBS by tail vein, thioglycollate intraperitoneally, cells counted after three hours
From the text: The efficaciousness of GM 1221, and GM 1398 was shown using a murine thioglycollate induced peritonitis model. The assay materials and methods are known in the art, or are generally described by Lewinsohn, D. et al., J. Immun., 138:4313-4321 (1987), or Watson, S. et.al., Nature 349:164-166 (1991).
This assay measures the abili:ty of the compounds to inhibit neutrophil migation to the peritoneal cavity, the migration being initiated by the presence of thioglycollate in the peritoneal cavity. Thioglycollate is a known and effective inflammatory agent that causes neutrophil migration into the mouse peritoneum when it is administered intraperitoneally. Lewinsohn, D. et al., J. Immun. (1987) 138:4313-4321.
Briefly, female Swiss Webster mice weighing about 25 grams were injected in the tail vein with 200 ul of phosphate buffered saline (PBS) with or without the appropriate compound. The pH of the solutions was adjusted to neutrality by the addition of either NaOH or HCL and sterilized by filtration through a 0.2 u filter.
Immediately following injection with the appropriate compound or PBS, the mice were injected intraperitoneally with 1 ml of thioglycollate medium prepared as described by the manufacturer, BBL. Three hours following injection of the thioglycollate solution the mice were sacrificed by CO2 asphyxiation, and the number of cells in the peritoneum removed by lavage with 5 ml of heparinized (5U/ml) 0.9%. sodium chloride solution containing 0.1% bovine serum albumin. Cell number was determined using a Coulter Counter. The cells were prepared for counting by diluting the lavage fluid with 1:50 of a commercial physiological isotonic solution, Isoton II, and the cells lysed by adding S/P Lysing and Hemoglobin Reagent (1:100 final dilution). Cell nuclei were counted in a sized window with lower and upper limits set at 3.9 and 5.7 um, respectively.

Row | inhibitory activity on L-selectin binding at all four concentrations tested (L-selectin IgG chimera; FIG. 6, all four concentrations of the compound tested) | SMILES | inhibition of E-selectin binding to 2,3sLex glycolipid (per cent of control binding) (E-selectin IgG chimera) | inhibition of L-selectin binding to 2,3sLex glycolipid (per cent of control binding) (L-selectin IgG chimera; FIG. 5 and FIG. 6, several concentrations) | inhibition of neutrophil migration into the peritoneum [1] | more neutrophil migration inhibited than GM 1221 ([1]; relative to GM 1221)
1 |  | CC(=O)NC1C(O)CC(OCCCCCCOC2OC(C)C(O)C(O)C2O)(C(=O)O)OC1C(O)C(O)CO [GM 1398, 1-O-α-Neu5Ac-(6-O-α-L-Fucopyranosyl)-Hexane] | inhibit E-selectin binding | inhibit L-selectin binding in a concentration dependent manner | inhibit neutrophil migration into the peritoneum | about 30%
2 | significant inhibitory activity | CC(OCCCCCCOC1O[C@@H](C)[C@@H](O)[C@@H](O)[C@@H]1O)C(=O)O (stereo partly drawn) [GM 1221] |  |  | inhibit neutrophil migration into the peritoneum | 
